Tests used:
[1] = logP determination by HPLC on reversed-phase column (C 18), EEC Directive 79/831 Annex V.A8; assay type: physicochemical
Description: The calibration was carried out using unbranched alkan-2-ones (having 3 to 16 carbon atoms) with known logP values (determination of the logP values by the retention times using linear interpolation between two successive alkanones).

weeds [2] = test: Post-emergence test (Example B), damage to weeds; assay type: in vivo; details: test plants of 5-15 cm sprayed, rated after three weeks
Description: (§1) To produce a suitable preparation of active compound, 1 part by weight of active compound is mixed with the stated amount of solvent, the stated amount of emulsifier is added and the concentrate is diluted with water to the desired concentration.
Test plants of a height of 5-15 cm are sprayed with the preparation of active compound such that the particular amounts of active compound desired are applied per unit area. The concentration of the spray liquor is chosen so that the particular amounts of active compound desired are applied in 1000 l of water/ha.
After three weeks, the degree of damage to the plants is rated in % damage in comparison to the development of the untreated controls.

weeds [3] = test: Pre-emergence test (Example A), damage to weeds; assay type: in vivo; details: soil sprayed 24 hours after sowing, rated after three weeks
Description: as §1
Seeds of the test plants are sown in normal soil. After 24 hours, the soil is sprayed with the preparation of active compound such that the particular amount of active compound desired is applied per unit area. The concentration of active compound in the spray liquors is chosen so that the particular amount of active compound desired is applied in 1000 litres of water per hectare.
After three weeks, the degree of damage to the plants is rated in % damage in comparison to the development of the untreated control.

Compound	melting point [°C]	activity against weeds (degree of damage) (weeds [3])	other results
5-methyl-1-(2,3-difluoromethylenedioxy-phenyl)-2(1H)-pyridinone [IX-28]	–	–	logP [1]: 3.95
CNC(=O)/N=c1\ccc(C)cn1-c1cccc(C(F)(F)F)c1 [Example 4, N-methyl-N′-[5-methyl-1-(3-trifluoromethylphenyl)-2(1H)-pyridinylidene]-urea]	114	–	–
Cc1cc/c(=N\c2nnc(C(F)(F)F)s2)n(-c2cccc(C(F)(F)F)c2)c1 [Example 6, N-(5-trifluoromethyl-1,3,4-thiadiazol-2-yl)-5-methyl-1-(3-trifluoromethyl-phenyl)-2(1H)-pyridinimine]	179	–	–
Cc1cc/c(=N\C#N)n(-c2cccc(C(F)(F)F)c2)c1 [Example 3, 5-methyl-1-(3-trifluoromethyl-phenyl)-2(1H)-pyridinylidenecyanamide]	165	strong activity against weeds	activity against weeds (degree of damage) (weeds [2]): strong activity against weeds
Cc1ccc(S(=O)(=O)/N=c2\ccc(C)cn2-c2cccc(C(F)(F)F)c2)cc1 [Example 7, 4-methyl-N-[5-methyl-1-(3-trifluoromethylphenyl)-2(1H)-pyridinylidene]-benzenesulphonamide]	174	–	–
Cc1ccc(=NS(=O)(=O)C(F)(F)F)n(-c2cccc(C(F)(F)F)c2)c1 [Example 5, N-[5-methyl-1-(3-trifluoromethyl-phenyl)-2(1H)-pyridinylidene]-trifluoromethanesulphonamide]	206	–	–
Cc1ccc(=NC(=O)OC(C)C)n(-c2cccc(C(F)(F)F)c2)c1 [Example 2]	–	strong activity against weeds	chromatographic logP ([1]; HPLC, range (acidic/neutral) not labelled): 1.59
Cc1cc/c(=N\C(=O)C(F)(F)F)n(-c2cccc(C(F)(F)F)c2)c1 [Example 1, 2,2,2-trifluoro-N-[5-methyl-1-(3-trifluoromethylphenyl)-2(1H)-pyridinylidene]-acetamide]	115	strong activity against weeds	activity against weeds (degree of damage) (weeds [2]): strong activity against weeds
Cc1ccc(=O)n(-c2cccc(C(F)(F)F)c2)c1 [IX-1, 5-methyl-1-(3-trifluoromethyl-phenyl)-2(1H)-pyridinone]	95	strong activity against weeds	activity against weeds (degree of damage) (weeds [2]): strong activity against weeds
O=c1ccc(C(F)(F)F)cn1-c1cccc(C(F)(F)F)c1 [IX-35, 5-trifluoromethyl-1-(3-trifluoromethyl-phenyl)-2(1H)-pyridinone]	–	–	chromatographic logP ([1]; reversed-phase HPLC column (C 18); labelled a): acidic range, 0.1% aqueous phosphoric acid/acetonitrile gradient, 43° C.): 2.78
Cc1cc/c(=N\C2CC2)n(-c2cccc(C(F)(F)F)c2)c1 [Example 8, N-cyclopropyl-5-methyl-1-(3-trifluoromethylphenyl)-2(1H)-pyridineimine]	–	–	chromatographic logP ([1]; reversed-phase HPLC column (C 18), HPLC, range (acidic/neutral) not labelled): 1.51
Cc1cccn(-c2cccc(C(F)(F)F)c2)c1=O [IX-34, 3-methyl-1-(3-trifluoromethyl-phenyl)-2(1H)-pyridinone]	122	–	–
